Experiments:
Format in all cases: in vivo
rice (Oryza sativa) = assay: Test B flooded paddy test, plant response rating 0-100; settings: Flood, 250 g ai/ha; scale 0 to 100 (0 no effect, 100 complete control); 13 to 15 days
In short: (§1)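 In-water treatment: compound dosed into 3 cm flood over soil, water level unchanged throughout. Controls run alongside; visual assessment at day 13–15.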

[1] = tested on: ducksalad (Heteranthera limosa); assay: as above; settings: Flood, 250 g ai/ha; scale 0 to 100 (0 no effect, 100 complete control); 13 to 15 days
In short: as §1

[2] = tested on: barnyardgrass (Echinochloa crus-galli); assay: as above; settings: Flood, 250 g ai/ha; scale 0 to 100 (0 no effect, 100 complete control); 13 to 15 days
In short: as §1

[3] = tested on: sedge, umbrella (small-flower umbrella sedge, Cyperus difformis); assay: as above; settings: Flood, 250 g ai/ha; scale 0 to 100 (0 no effect, 100 complete control); 13 to 15 days
In short: as §1

[4] = tested on: giant foxtail (Setaria faberii); assay: Test A pre-/postemergence greenhouse herbicide test, visual injury rating 0-100
In short: (§2)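 Greenhouse plants received compound either as directed soil spray at planting or as postemergence spray at the one- to two-leaf stage (2–10 cm). Evaluated after about 10 days by visual comparison with untreated controls.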

[5] = tested on: velvetleaf (Abutilon theophrasti); assay: as above
In short: as §2

[6] = tested on: large (Lg) crabgrass (Digitaria sanguinalis); assay: as above
In short: as §2

[7] = tested on: pigweed (Amaranthus retroflexus); assay: as above
In short: as §2

[8] = tested on: barnyardgrass (Echinochloa crus-galli); assay: as above
In short: as §2

[9] = tested on: wheat (Triticum aestivum); assay: as above
In short: as §2

[10] = tested on: morningglory (Ipomoea spp.); assay: as above
In short: as §2

corn (Zea mays) = assay: as above
In short: as §2

With N=C(c1ccccc1)c1c[nH]nc1-c1cc(F)cc(F)c1 [Compound 67] the “Plant response rating, Rice” value (rice (Oryza sativa)) was 0, the “Plant response rating, Ducksalad” value [1] was 0 and the “Plant response rating, Barnyardgrass” value [2] was 0. For the same molecule, the “Plant response rating, Sedge, Umbrella” value [3] was 0, the “Plant response rating (0 to 100 scale), Foxtail, Giant” value ([4]; Postemergence, 1000 g ai/ha) was 0 and the “Plant response rating (0 to 100 scale), Foxtail, Giant” value ([4]; Preemergence, 1000 g ai/ha) was 0. For the same molecule, the “Plant response rating (0 to 100 scale), Velvetleaf” value ([5]; Postemergence, 1000 g ai/ha) was 90, the “Plant response rating (0 to 100 scale), Velvetleaf” value ([5]; Preemergence, 1000 g ai/ha) was 100 and the “Plant response rating (0 to 100 scale), Crabgrass, Large” value ([6]; Postemergence, 1000 g ai/ha) was 0. For the same molecule, the “Plant response rating (0 to 100 scale), Crabgrass, Large” value ([6]; Preemergence, 1000 g ai/ha) was 0, the “Plant response rating (0 to 100 scale), Pigweed” value ([7]; Postemergence, 1000 g ai/ha) was 80 and the “Plant response rating (0 to 100 scale), Pigweed” value ([7]; Preemergence, 1000 g ai/ha) was 100. For the same molecule, the “Plant response rating (0 to 100 scale), Barnyardgrass” value ([8]; Postemergence, 1000 g ai/ha) was 0, the “Plant response rating (0 to 100 scale), Barnyardgrass” value ([8]; Preemergence, 1000 g ai/ha) was 0 and the “Plant response rating (0 to 100 scale), Wheat” value ([9]; Postemergence, 1000 g ai/ha) was 0. For the same molecule, the “Plant response rating (0 to 100 scale), Wheat” value ([9]; Preemergence, 1000 g ai/ha) was 0, the “Plant response rating (0 to 100 scale), Morningglory” value ([10]; Postemergence, 1000 g ai/ha) was 0 and the “Plant response rating (0 to 100 scale), Morningglory” value ([10]; Preemergence, 1000 g ai/ha) was 0. The “Plant response rating (0 to 100 scale), Corn” value (corn (Zea mays); Postemergence, 1000 g ai/ha) was 0 and the “Plant response rating (0 to 100 scale), Corn” value (corn (Zea mays); Preemergence, 1000 g ai/ha) was 0.

C=CCn1cc(C(=O)c2cccnc2)c(-c2cc(Cl)cc(Cl)c2)n1 [Compound 8] was tested, and the “Plant response rating, Rice” value (rice (Oryza sativa)) was 0, the “Plant response rating, Ducksalad” value [1] was 0 and the “Plant response rating, Barnyardgrass” value [2] was 0. The “Plant response rating, Sedge, Umbrella” value [3] was 0, the “Plant response rating (0 to 100 scale), Foxtail, Giant” value ([4]; Postemergence, 125 g ai/ha) was 0 and the “Plant response rating (0 to 100 scale), Foxtail, Giant” value ([4]; Postemergence, 500 g ai/ha) was 0. The “Foxtail, Giant plant response rating (0 = no effect, 100 = complete control)” value ([4]; Preemergence, 125 g ai/ha) was 0, the “Plant response rating (0 to 100 scale), Foxtail, Giant” value ([4]; Preemergence, 500 g ai/ha) was 0 and the “Plant response rating (0 to 100 scale), Velvetleaf” value ([5]; Postemergence, 125 g ai/ha) was 10. The “Plant response rating (0 to 100 scale), Velvetleaf” value ([5]; Postemergence, 500 g ai/ha) was 30, the “Velvetleaf plant response rating (0 = no effect, 100 = complete control)” value ([5]; Preemergence, 125 g ai/ha) was 0 and the “Plant response rating (0 to 100 scale), Velvetleaf” value ([5]; Preemergence, 500 g ai/ha) was 0. The “Plant response rating (0 to 100 scale), Crabgrass, Large” value ([6]; Postemergence, 125 g ai/ha) was 0, the “Plant response rating (0 to 100 scale), Crabgrass, Large” value ([6]; Postemergence, 500 g ai/ha) was 0 and the “Crabgrass, Large plant response rating (0 = no effect, 100 = complete control)” value ([6]; Preemergence, 125 g ai/ha) was 0. For the same molecule, the “Plant response rating (0 to 100 scale), Crabgrass, Large” value ([6]; Preemergence, 500 g ai/ha) was 0, the “Plant response rating (0 to 100 scale), Pigweed” value ([7]; Postemergence, 125 g ai/ha) was 30 and the “Plant response rating (0 to 100 scale), Pigweed” value ([7]; Postemergence, 500 g ai/ha) was 60. For the same molecule, the “Pigweed plant response rating (0 = no effect, 100 = complete control)” value ([7]; Preemergence, 125 g ai/ha) was 0, the “Plant response rating (0 to 100 scale), Pigweed” value ([7]; Preemergence, 500 g ai/ha) was 50 and the “Plant response rating (0 to 100 scale), Barnyardgrass” value ([8]; Postemergence, 125 g ai/ha) was 0. The “Plant response rating (0 to 100 scale), Barnyardgrass” value ([8]; Postemergence, 500 g ai/ha) was 0, the “Barnyardgrass plant response rating (0 = no effect, 100 = complete control)” value ([8]; Preemergence, 125 g ai/ha) was 0 and the “Plant response rating (0 to 100 scale), Barnyardgrass” value ([8]; Preemergence, 500 g ai/ha) was 0. The “Plant response rating (0 to 100 scale), Wheat” value ([9]; Postemergence, 125 g ai/ha) was 0, the “Plant response rating (0 to 100 scale), Wheat” value ([9]; Postemergence, 500 g ai/ha) was 0 and the “Wheat plant response rating (0 = no effect, 100 = complete control)” value ([9]; Preemergence, 125 g ai/ha) was 0. For the same molecule, the “Plant response rating (0 to 100 scale), Wheat” value ([9]; Preemergence, 500 g ai/ha) was 0, the “Plant response rating (0 to 100 scale), Morningglory” value ([10]; Postemergence, 125 g ai/ha) was 0 and the “Plant response rating (0 to 100 scale), Morningglory” value ([10]; Postemergence, 500 g ai/ha) was 0. The “Morningglory plant response rating (0 = no effect, 100 = complete control)” value ([10]; Preemergence, 125 g ai/ha) was 0, the “Plant response rating (0 to 100 scale), Morningglory” value ([10]; Preemergence, 500 g ai/ha) was 0 and the “Plant response rating (0 to 100 scale), Corn” value (corn (Zea mays); Postemergence, 125 g ai/ha) was 0. The “Plant response rating (0 to 100 scale), Corn” value (corn (Zea mays); Postemergence, 500 g ai/ha) was 0, the “Corn plant response rating (0 = no effect, 100 = complete control)” value (corn (Zea mays); Preemergence, 125 g ai/ha) was 0 and the “Plant response rating (0 to 100 scale), Corn” value (corn (Zea mays); Preemergence, 500 g ai/ha) was 0.

From US10167262B2, “Herbicidal substituted 3-arylpyrazoles” (FMC CORPORATION, priority 2014, dated 2019)
